From patent US9993462B2, “Hydantoin derivative-containing pharmaceutical composition” (Chugai Seiyaku Kabushiki Kaisha, priority 2014, dated 2018)

Target: T1, rat PTH1R (Rattus norvegicus, UniProt P25961)
T1 construct: expressed in transfected cells
T1 sequence (P25961 27-591): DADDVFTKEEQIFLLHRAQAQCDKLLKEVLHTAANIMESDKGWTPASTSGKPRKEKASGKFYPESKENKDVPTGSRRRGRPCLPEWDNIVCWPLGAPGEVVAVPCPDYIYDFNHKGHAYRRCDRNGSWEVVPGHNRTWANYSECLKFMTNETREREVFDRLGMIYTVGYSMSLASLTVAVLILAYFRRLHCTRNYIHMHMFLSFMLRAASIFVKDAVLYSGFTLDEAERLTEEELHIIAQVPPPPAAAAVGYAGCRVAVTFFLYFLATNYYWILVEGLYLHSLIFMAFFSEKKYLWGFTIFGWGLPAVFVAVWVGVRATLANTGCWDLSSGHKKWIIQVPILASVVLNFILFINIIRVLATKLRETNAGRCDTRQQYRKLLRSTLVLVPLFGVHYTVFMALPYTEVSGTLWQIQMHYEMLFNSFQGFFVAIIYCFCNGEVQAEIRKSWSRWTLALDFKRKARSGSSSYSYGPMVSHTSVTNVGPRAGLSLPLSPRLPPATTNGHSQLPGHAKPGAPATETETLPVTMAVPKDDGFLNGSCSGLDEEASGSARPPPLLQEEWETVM
Test: In vitro cAMP signaling activity via the rat PTH1R (LLC-PK46_RATO_PTH1R cells)
Type: cell-based
Settings: LLC-PK46_RATO_PTH1R cells overexpressing rat PTH1R
From the text: Instead of HKRK-B7 cells, LLC-PK46_RATO_PTH1R cells overexpressing rat PTH1R, which were established at Chugai Pharmaceutical, were used to take measurements in a similar manner to Reference Test Example 1.

Cc1cc(N2C(=O)NC(=O)C2(C)C)cc(C)c1CCS(=O)(=O)N1CCC2(CC1)N=C(c1ccc(OC(F)(F)F)cc1)NC2=O [Compound 7, 1-(3,5-dimethyl-4-(2-((4-oxo-2-(4-(trifluoromethoxy)phenyl)-1,3,8-triazaspiro[4.5]deca-1-en-8-yl)sulfonyl)ethyl)phenyl)-5,5-dimethylimidazolidine-2,4-dione]
EC20: 500 nM
